Results published in patent US9175058B2, “Soluble immune response suppressor polypeptides and treatment of multiple sclerosis and other autoimmune diseases” (THE BOARD OF REGENTS OF THE UNIVERSITY OF TEXAS SYSTEM, priority 2004, dated 2015).
No end group written: not given here.

Assays:
Type in all cases: in vivo, mouse
[1] = test system: C57/BL6 mice; assay: Induction of acute EAE by active immunization with MOG peptide 35-55; design: dose or concentration left out as unconfirmed; details: day 21, s.c. immunization with peptide in IFA, pertussis toxin, FIG. 1
[2] = test system: acute EAE in B6 mice; assay: Ingested (gavaged) SIRS peptide 1-21 in acute EAE induced by MOG peptide 35-55
[3] = test system: IL-10; assay: Quantitative PCR of IL-10 transcripts in spleen and spinal cord of SIRS peptide-fed EAE mice
From the text: (§1) Quantitative PCR can be performed for nominal EAE cytokine or transcript of interest. In particular, the mean measured transcript levels for IL-2/IFN-γ (Th1-like), IL-4/IL-10 (Th2-like) and other nominal biologic response modifiers of interest (e.g. TGF-β, IL-1, IL-6, IL-12, TNF-α) will be normalized to the b-actin control and expressed as % b-actin molecules.
(§2) Inflamed spinal cords from soluble immune response suppressor peptide-fed B6 mice (active treatment group) or from mock fed donor mice (control) were utilized for the experiments below. Intact spinal cord can be ejected by injecting saline into the distal end of the spinal canal and stored in RNALater (Ambion). The spinal cord is disrupted and the resulting cell suspension is filtered through a Falcon Cell Strainer 2350 (Becton Dickinson, San Jose, Calif.). Total RNA was processed on day 23-26 post active immunization, and relative numbers of transcripts for IFN-γ, IL-4, IL-10, SOCS-1, SOCS-2, and SOCS-3 were determined by quantitative PCR. The measured mean transcript levels were normalized to b-actin control (normalization mean=COI mean/b-actin×100) and expressed as % b-actin molecules.

[4] = test system: SOCS-3; assay: Quantitative PCR of SOCS-3 transcripts in spleen and spinal cord of SIRS peptide-fed EAE mice; details: for Splenic SOCS-3 transcript level normalized to b-actin: spleen, day 23-26 post active immunization
[5] = test system: EAE in B6 recipients; assay: Adoptive transfer of MOG-restimulated splenocytes from SIRS peptide-injected donors to B6 recipients; details: recipients of 10×10^6 MOG-activated splenocytes i.p. from donors injected with 10 mg day −7 through day +14, FIG. 3
Description: B6 mice effector donors were actively immunized with myelin oligodendrocyte glycoprotein peptide 35-55 described above (day 0) and injected (day −7 through day +14 post-immunization) with 0.1 ml of control saline (n=8) or 10 mg of soluble immune response suppressor peptide 1-21 (n=8). On day 14 post inoculation, splenocytes from both saline-injected (mock control) and soluble immune response suppressor peptide-injected (active treatment) immunized donor mice were re-stimulated in vitro with […] myelin oligodendrocyte glycoprotein peptide 35-55 at 20×10^6 splenocytes for >1 hour and then diluted to 2-4 million cells/ml and cultured for 48-72 hours in RPMi with 10% FCS and 1% Pen/Strep. Myelin oligodendrocyte glycoprotein-restimulated cells were washed, counted and passively transferred (10×10^6) i.p. into 8-10 week old female B6 recipients.
The control group reached a maximum disease score of 2.1.

[6] = test system: diabetes mellitus in NOD mice; assay: Ingested SIRS peptide 1-21 in spontaneous diabetes of NOD mice; details: NOD female mice fed 100 μg daily from age ten weeks, FIG. 6 and FIG. 7
Description: NOD female mice (NOD MrkTacfBR) were obtained from Taconic Farms at eight weeks of age and feeding with mock (n=12) or 100 μg SIRS peptide 1-21 (n=6) in 0.1 ml DPBS daily was initiated at ten weeks. One hundred micrograms was used because this was an effective dose for inhibiting EAE (experimental autoimmune encephalomyelitis) in mice. The mice were maintained and fed under SPF conditions in microisolators, and handled under negative pressure sterile hoods. Surveillance mice were maintained with experimental mice and examined regularly for routine murine pathogens.
Mice were followed after initiation of feeding by weekly blood glucose determination (Life Scan One Touch II, Johnson & Johnson) beginning at week 18 thru 22. Animals were considered diabetic if two consecutive blood glucose determinations were above >11.1 mmol/l or >[…]. […]
Mock or SIRS peptide 1-21 was administered using a 2.5 cm syringe fitted with a 22-24 gauge ball point needle directly to the stomach and proximal small intestine (Thomas Scientific, Swedesboro, N.J.) daily to NOD mice beginning at age ten weeks. The peptide was directly delivered to the distal esophagus, stomach and proximal small intestine (as determined experimentally by injecting Evans blue during routine feeding and subsequent sacrifice). […]

[7] = test system: SOCS-2; assay: Quantitative PCR of SOCS-2 transcripts in spleen and spinal cord of SIRS peptide-fed EAE mice
From the text: as §1, §2

[8] = test system: SOCS-3; assay: Quantitative PCR of SOCS-3 transcripts in spleen and spinal cord of SIRS peptide-fed EAE mice; details: for SOCS-3 transcript level in CNS target tissue normalized to b-actin: spinal cord, day 23-26 post active immunization
From the text: as §1, §2

[9] = test system: IL-4; assay: Quantitative PCR of IL-4 transcripts in spleen and spinal cord of SIRS peptide-fed EAE mice; details: for IL-4 transcript level in CNS target tissue normalized to b-actin: spinal cord, day 23-26 post active immunization
From the text: as §1, §2

[10] = test system: IFN-γ; assay: Quantitative PCR of IFN-γ transcripts in spleen and spinal cord of SIRS peptide-fed EAE mice
From the text: as §1, §2

[11] = test system: SOCS-1; assay: Quantitative PCR of SOCS-1 transcripts in spleen and spinal cord of SIRS peptide-fed EAE mice; details: for SOCS-1 transcript level in CNS target tissue normalized to b-actin: spinal cord, day 23-26 post active immunization
From the text: as §1, §2

[12] = test system: acute EAE in B6 mice; assay: Parenteral (injected) SIRS peptide 1-21 in acute EAE induced by MOG peptide 35-55; details: day −7 through day 14 post immunization, n=8/group; for inhibition of EAE compared to placebo: FIG. 2
[13] = test system: SOCS-1; assay: Quantitative PCR of SOCS-1 transcripts in spleen and spinal cord of SIRS peptide-fed EAE mice; details: for Splenic SOCS-1 transcript level normalized to b-actin: spleen, day 23-26 post active immunization
[14] = splenic samples, data not shown
[15] = splenic samples from peptide-fed mice
[16] = CNS target organ (spinal cord) of peptide-fed mice

Sequence: MEVGWYRSPFSRVVHLYRNGK [Synthetic peptide 35-55 from myelin oligodendrocyte glycoprotein, used to induce EAE]
- mean clinical score (scale 0-6) [1]: 3.44

Sequence: MTEENQQSSQPKTTINNAGDS
- delay in the onset of disease compared to placebo ([2]; 0.1 mg gavaged, FIG. 4): prolonged delay in the onset of disease
- inhibition of EAE disease severity compared to placebo ([2]; 0.1 mg gavaged, day −7 through day 14, n=4/group, FIG. 4): significant inhibition of disease severity
- inhibition of EAE disease severity compared to placebo ([2]; 0.1 mg gavaged, day −7 through day 14, n=4/group, FIG. 4, listed as soluble immune response suppressor peptide): significant inhibition
- inhibition of EAE compared to placebo ([2]; 0.1 mg gavaged, repeat experiment, n=4/group, FIG. 5): no significant inhibition
- inhibition of EAE compared to placebo ([2]; 1 mg gavaged, day −7 through day 14, n=4/group, FIG. 4): significant inhibition
- delay in the onset of disease compared to placebo ([2]; 1 mg gavaged, repeat experiment, FIG. 5): prolonged delay in the onset of disease
- inhibition of disease severity compared to placebo ([2]; 1 mg gavaged, repeat experiment, FIG. 5, p<0.038 Mann-Whitney): significant inhibition of disease severity
- delay in the onset of disease compared to placebo ([2]; 10 mg gavaged, FIG. 4): prolonged delay in the onset of disease
- inhibition of disease severity compared to placebo ([2]; 10 mg gavaged, day −7 through day 14, n=4/group, FIG. 4): significant inhibition of disease severity
- delay in the onset of disease compared to placebo ([2]; 100 mg gavaged, FIG. 4): prolonged delay in the onset of disease
- inhibition of disease severity compared to placebo ([2]; 100 mg gavaged, day −7 through day 14, n=4/group, FIG. 4): significant inhibition of disease severity
- delay in the onset of disease compared to placebo ([2]; 100 mg gavaged, repeat experiment, FIG. 5): prolonged delay in the onset of disease
- inhibition of disease severity compared to placebo ([2]; 100 mg gavaged, repeat experiment, FIG. 5, p<0.001): significant inhibition of disease severity
- difference in IL-10 compared to control ([3]; cord samples): no significant differences
- difference in IL-10 compared to control [3, 14]: no significant difference
- Splenic SOCS-3 transcript level normalized to b-actin ([4]; fed 0.1 mg): 0.38 % b-actin molecules
- Splenic SOCS-3 transcript level normalized to b-actin ([4]; fed 1 mg): 0.28 % b-actin molecules
- Splenic SOCS-3 transcript level normalized to b-actin ([4]; fed 10 mg): 0.21 % b-actin molecules
- Splenic SOCS-3 transcript level normalized to b-actin ([4]; fed 100 mg): 0.18 % b-actin molecules
- decrease in SOCS-3 compared to control [4, 15]: 60%
- clinical disease in recipients after passive transfer [5]: did not have any prolonged clinical disease
- frequency of mice becoming diabetic compared to mock treated mice [6]: decreased frequency of mice becoming diabetic
- onset of T1DM compared to mock treated mice [6]: significantly delayed onset of T1DM
- difference in SOCS-2 compared to control ([7]; cord samples): no significant differences
- difference in SOCS-2 compared to control [7, 14]: no significant difference
- decrease in SOCS-3 [8, 16]: 45%
- SOCS-3 transcript level in CNS target tissue normalized to b-actin ([8]; fed 0.1 mg): 0.45 % b-actin molecules
- SOCS-3 transcript level in CNS target tissue normalized to b-actin ([8]; fed 1 mg): 0.54 % b-actin molecules
- SOCS-3 transcript level in CNS target tissue normalized to b-actin ([8]; fed 10 mg): 0.28 % b-actin molecules
- SOCS-3 transcript level in CNS target tissue normalized to b-actin ([8]; fed 100 mg): 0.22 % b-actin molecules
- decrease in IL-4 expression [9, 16]: up to 80%
- IL-4 transcript level in CNS target tissue normalized to b-actin ([9]; fed 0.1 mg): 0.04 % b-actin molecules
- IL-4 transcript level in CNS target tissue normalized to b-actin ([9]; fed 1 mg): 0.15 % b-actin molecules
- IL-4 transcript level in CNS target tissue normalized to b-actin ([9]; fed 10 mg): 0.05 % b-actin molecules
- IL-4 transcript level in CNS target tissue normalized to b-actin ([9]; fed 100 mg): 0.02 % b-actin molecules
- difference in IL-4 compared to control [9, 14]: no significant difference
- difference in IFN-γ compared to control ([10]; cord samples): no significant differences
- difference in IFN-γ compared to control [10, 14]: no significant difference
- increase in SOCS-1 expression [11, 16]: 75-175 % of control
- SOCS-1 transcript level in CNS target tissue normalized to b-actin ([11]; fed 0.1 mg): 0.14 % b-actin molecules
- SOCS-1 transcript level in CNS target tissue normalized to b-actin ([11]; fed 1 mg): 0.19 % b-actin molecules
- SOCS-1 transcript level in CNS target tissue normalized to b-actin ([11]; fed 10 mg): 0.22 % b-actin molecules
- SOCS-1 transcript level in CNS target tissue normalized to b-actin ([11]; fed 100 mg): 0.14 % b-actin molecules
- inhibition of EAE compared to placebo ([12]; 0.1 mg injected): no significant inhibition
- inhibition of EAE compared to placebo ([12]; 1 mg injected): no significant inhibition
- inhibition of disease severity compared to placebo ([12]; 10 mg injected (s.c.), FIG. 2, ρ<0.001): significant inhibition of disease severity
- Splenic SOCS-1 transcript level normalized to b-actin ([13]; fed 0.1 mg): 0.28 % b-actin molecules
- Splenic SOCS-1 transcript level normalized to b-actin ([13]; fed 1 mg): 0.30 % b-actin molecules
- Splenic SOCS-1 transcript level normalized to b-actin ([13]; fed 10 mg): 0.23 % b-actin molecules
- Splenic SOCS-1 transcript level normalized to b-actin ([13]; fed 100 mg): 0.23 % b-actin molecules
- decrease in SOCS-1 compared to control [13, 15]: up to 30%
